Measurements as given in patent EP2975030B1, “DIHYDROPYRIDAZINE-3,5-DIONE DERIVATIVE” (Chugai Seiyaku Kabushiki Kaisha, priority 2013, dated 2014).

System: rat small-intestinal brush border membrane vesicles
Assay: Inhibitory effect on 33PO4 uptake into rat small-intestinal brush border membrane vesicles (rapid filtration method)
Assay type: biochemical, Wistar female rat
Details: 1 µM test compound; 33PO4 uptake into rat small-intestinal BBMVs, 60 seconds
Protocol: The ^33PO4 transport activity of the small-intestinal BBMVs was determined by the rapid filtration method. […] Then, ice-cold buffer C (110 mM NaCl, 1 mM KH2PO4, and 10 mM HEPES (pH 7.5)) was added to each reaction mixture, which was immediately suction-filtered through a Millipore filter. The filter was washed with buffer C, and each sample was then dissolved in a liquid scintillator. The amount of ^33PO4 uptake into BBMVs was measured using a liquid scintillation counter. […]

Molecule | Rate of uptake inhibition (%) (1 µM)
1-[(3-Fluorophenyl)methyl]-4-hydroxy-4a-methyl-N-[5-methyl-2-(trifluoromethyl)furan-3-yl]-2-oxo-5,6,7,8-tetrahydropyrido[1,2-b]pyridazine-3-carboxamide [Example 18] | 12%
Cc1cc(NC(=O)C2=C(O)[C@@H]3CCCN3N(Cc3cccc(F)c3)C2=O)c(C(F)(F)F)o1 [Example 1, (4aS)-1-[(3-Fluorophenyl)methyl]-4-hydroxy-N-[5-methyl-2-(trifluoromethyl)furan-3-yl]-2-oxo-4a,5,6,7-tetrahydropyrrolo[1,2-b]pyridazine-3-carboxamide] | 28%
Cc1cc(NC(=O)C2=C(O)[C@H]3CCCN3N(Cc3cccc(F)c3)C2=O)c(C(F)(F)F)o1 [Example 2, (4aR)-1-[(3-Fluorophenyl)methyl]-4-hydroxy-N-[5-methyl-2-(trifluoromethyl)furan-3-yl]-2-oxo-4a,5,6,7-tetrahydropyrrolo[1,2-b]pyridazine-3-carboxamide] | 19%
Cc1cc(NC(=O)C2=C(O)[C@@H]3CC(C)(C)CN3N(Cc3cccc(F)c3)C2=O)c(C(F)(F)F)o1 [Example 3, (4aS)-1-[(3-Fluorophenyl)methyl]-4-hydroxy-6,6-dimethyl-N-[5-methyl-2-(trifluoromethyl)furan-3-yl]-2-oxo-5,7-dihydro-4aH-pyrrolo[1,2-b]pyridazine-3-carboxamide] | 11%
Cc1cc(NC(=O)C2=C(O)[C@@H]3CCC(C)(C)N3N(Cc3cccc(F)c3)C2=O)c(C(F)(F)F)o1 [Example 4, (4aS)-1-[(3-Fluorophenyl)methyl]-4-hydroxy-7,7-dimethyl-N-[5-methyl-2-(trifluoromethyl)furan-3-yl]-2-oxo-5,6-dihydro-4aH-pyrrolo[1,2-b]pyridazine-3-carboxamide] | 32%
Cc1cc(NC(=O)C2=C(O)[C@@]3(C)CCCN3N(Cc3cccc(F)c3F)C2=O)c(C(F)(F)F)o1 [Example 7] | 69%
Cc1cc(NC(=O)C2=C(O)[C@]3(C)CCCN3N(Cc3cccc(F)c3)C2=O)c(C(F)(F)F)o1 [Example 8] | 37%
Cc1cc(NC(=O)C2=C(O)[C@H]3CCCCN3N(Cc3cccc(F)c3)C2=O)c(C(F)(F)F)o1 [Example 15, (4aR)-1-[(3-Fluorophenyl)methyl]-4-hydroxy-N-[5-methyl-2-(tritluoromethyl)furan-3-yl]-2-oxo-5,6,7,8-tetrahydro-4aH-pyrido[1,2-b]pyridazine-3-carboxamide] | 42%
Cc1cc(NC(=O)C2=C(O)[C@@H]3CCCCN3N(Cc3cccc(F)c3)C2=O)c(C(F)(F)F)o1 [Example 16] | 38%
Cc1cc(NC(=O)C2=C(O)[C@@H]3CCCCN3N(Cc3c(F)c(F)cc4cc[nH]c34)C2=O)c(C(F)(F)F)o1 [Example 17, (4aS)-1-[(5,6-Difluoro-1H-indol-7-yl)methyl]-4-hvdroxy-N-[5-methyl-2-(trifluoromethyl)furan-3-yl]-2-oxo-5,6,7,8-tetrahydro-4aH-pyrido[1,2-b]pyridazine-3-carboxamide] | 33%
CCC12CCCCN1N(Cc1cccc(F)c1F)C(=O)C(C(=O)Nc1cc(C)oc1C(F)(F)F)=C2O (stereo not shown) [Example 19, 1-[2,3-(Difluorophenyl)methyl]-4a-ethyl-4-hydroxy-N-[5-methyl-2-(trifluoromethyl)furan-3-yl]-2-oxo-5,6,7,8-tetrahydropyrido[1,2-b]pyridazine-3-carboxamide] | 41%
C[C@]12CCCN1N(Cc1cccc(F)c1F)C(=O)C(C(=O)Nc1ccc(C(F)(F)F)cc1-c1cc(C(F)(F)F)ncn1)=C2O [Example 21, (4aR)-1-[(2,3-Difluorophenyl)methyl]-4-hydroxy-4a-methyl-2-oxo-N-[4-(trifluoromethyl)-2-[6-(trifluoromethyl)pyrimidin-4-yl]phenyl]-6,7-dihydro-5H-pyrrolo[1,2-b]pyridazine-3-carboxamide] | 61%
C[C@]12CCCN1N(Cc1cccc(F)c1F)C(=O)C(C(=O)Nc1ccc(C(F)(F)F)cc1-c1ncnc(C#N)c1Cl)=C2O [Example 23] | 84%
Cc1c(C#N)ncnc1-c1cc(C(F)(F)F)ccc1NC(=O)C1=C(O)[C@@]2(C)CCCN2N(Cc2cccc(F)c2F)C1=O [Example 24] | 76%
COc1c(C#N)ncnc1-c1cc(C(F)(F)F)ccc1NC(=O)C1=C(O)[C@@]2(C)CCCN2N(Cc2cccc(F)c2F)C1=O [Example 25] | 82%
CCCCCN1C(=O)C(C(=O)Nc2ccc(C(F)(F)F)cc2-c2ccc(C(F)(F)F)nc2)=C(O)[C@@]2(C)CCCN12 [Example 26] | 72%
C[C@]12CCCN1N(Cc1cccc([N+](=O)[O-])c1)C(=O)C(C(=O)Nc1ccc(Br)c(F)c1)=C2O [Example 27] | 76%
C[C@]12CCCN1N(Cc1cccc(F)c1F)C(=O)C(C(=O)Nc1ccc(Br)c(F)c1)=C2O [Example 28] | 72%
C[C@]12CCCN1N(Cc1cccc(F)c1F)C(=O)C(C(=O)Nc1cc(F)c(Br)c(F)c1)=C2O [Example 29] | 75%
CC1(C)CC[C@]2(C)C(O)=C(C(=O)Nc3cc(C(F)(F)F)ccc3-c3ccc(C(F)(F)F)nc3)C(=O)N(Cc3cccc(F)c3F)N12 [Example 63] | 72%
C[C@]12CCCN1N(Cc1cccc(F)c1F)C(=O)C(C(=O)Nc1ccc(Br)cc1-c1cc(C(F)(F)F)ncn1)=C2O [Example 64] | 77%

Molecule | Rate of uptake inhibition (%) (1 µM)
COC(=O)c1cccc(-c2cc(C(F)(F)F)ccc2NC(=O)C2=C(O)[C@@]3(C)CCCN3N(Cc3cccc(F)c3F)C2=O)c1OC [Example 65] | 98%
CCOc1cccc(-c2cc(C(F)(F)F)ccc2NC(=O)C2=C(O)[C@@]3(C)CCCN3N(Cc3cccc(F)c3F)C2=O)c1OC [Example 66] | 96%
C[C@]12CCCN1N(Cc1cccc(F)c1F)C(=O)C(C(=O)Nc1ccc(C(F)(F)F)cc1-c1cnc(Cl)nc1)=C2O [Example 67] | 91%
C[C@]12CCCN1N(Cc1cccc(F)c1F)C(=O)C(C(=O)Nc1ccc(C(F)(F)F)cc1-c1cnc(Cl)c(C#N)c1)=C2O [Example 68, (4aR)-N-[2-(6-Chloro-5-cyanopyridin-3-yl)-4-(trifluoromethyl)phenyl]-1-[(2,3-difluorophenyl)methyl]-4-hydroxy-4a-methyl-2-oxo-6,7-dihydro-5H-pyrrolo[1,2-b]pyridazine-3-carboxamide] | 84%
Cc1c(Cl)ncnc1-c1cc(C(F)(F)F)ccc1NC(=O)C1=C(O)[C@@]2(C)CCCN2N(Cc2cccc(F)c2F)C1=O [Example 69] | 74%
C[C@]12CCCN1N(Cc1cccc(F)c1F)C(=O)C(C(=O)Nc1ccc(C(F)(F)F)cc1-c1ncnc(Cl)c1Cl)=C2O [Example 70] | 79%
CN(C)S(=O)(=O)c1ccc(-c2cc(C(F)(F)F)ccc2NC(=O)C2=C(O)[C@@]3(C)CCCN3N(Cc3cccc(F)c3F)C2=O)s1 [Example 71] | 97%
COc1ncc(-c2cc(C(F)(F)F)ccc2NC(=O)C2=C(O)[C@@]3(C)CCCN3N(Cc3cccc(F)c3F)C2=O)c(OC)n1 [Example 72] | 92%
C[C@]12CCCN1N(Cc1cccc(F)c1F)C(=O)C(C(=O)Nc1ccc(C(F)(F)F)cc1-c1cnc(Br)cn1)=C2O [Example 73] | 74%
C[C@]12CCCN1N(Cc1cccc(F)c1F)C(=O)C(C(=O)Nc1ccc(C(F)(F)F)cc1-c1cnc(Cl)cn1)=C2O [Example 74] | 82%
C[C@]12CCCN1N(Cc1cccc(F)c1F)C(=O)C(C(=O)Nc1ccc(Br)cc1F)=C2O [Example 75] | 74%
C[C@]12CCCN1N(Cc1cccc(F)c1F)C(=O)C(C(=O)Nc1ccc(Cl)cc1F)=C2O [Example 76] | 77%
C[C@]12CCCN1N(Cc1cccc(F)c1F)C(=O)C(C(=O)Nc1ccc(Br)cc1)=C2O [Example 77] | 80%
C[C@]12CCCN1N(Cc1cccc(F)c1F)C(=O)C(C(=O)Nc1ccc(Br)cn1)=C2O [Example 78] | 71%
C[C@]12CCCN1N(Cc1cccc(F)c1F)C(=O)C(C(=O)Nc1ccc(Cl)cn1)=C2O [Example 79] | 71%
COc1cc(C)c(-c2cc(C(F)(F)F)ccc2NC(=O)C2=C(O)[C@@]3(C)CCCN3N(Cc3cccc(F)c3F)C2=O)cn1 [Example 80] | 75%
COc1cncc(-c2cc(C(F)(F)F)ccc2NC(=O)C2=C(O)[C@@]3(C)CCCN3N(Cc3cccc(F)c3F)C2=O)c1 [Example 81] | 74%
C[C@]12CCCN1N(Cc1cccc(F)c1F)C(=O)C(C(=O)Nc1ccc(C(F)(F)F)cc1-c1cncc(C#N)c1)=C2O [Example 82] | 100%
C[C@]12CCCN1N(Cc1cccc(F)c1F)C(=O)C(C(=O)Nc1ccc(C(F)(F)F)cc1-c1cnc3ccccc3c1)=C2O [Example 83] | 90%
C[C@]12CCCN1N(Cc1cccc(F)c1F)C(=O)C(C(=O)Nc1ccc(C(F)(F)F)cc1-c1cc(Cl)cnc1Cl)=C2O [Example 84] | 91%
C[C@]12CCCN1N(Cc1cccc(F)c1F)C(=O)C(C(=O)Nc1ccc(C(F)(F)F)cc1-c1ccc(C(F)(F)F)nc1Br)=C2O [Example 85] | 71%

Same assay, conditions: 1 µM test compound; 33PO4 uptake into rat small-intestinal BBMVs, 60 seconds; 1 µM

Molecule | Rate of uptake inhibition (%) (1 µM)
6-[[2,3-Difluoro-4-[1-(2-methoxyethyl)azetidin-3-yl]oxyphenyl]methyl]-9-hydroxy-5-methyl-7-oxo-N-[4-(trifluoromethyl)-2-[6-(trifluoromethyl)pyrimidin-4-yl]phenyl]-5,6-diazaspiro[3.5]non-8-ene-8-carboxamide [Example 413] | 34%
